Results from the supplement of paper PMC11061612.

Columns and labels:
[1] = compound: C=CCn1c(=O)c2cnc(Nc3ccc(N4CCN(C)CC4)cc3)nc2n1-c1cccc(C(C)(C)O)n1 [AZD1775]; details: max 3 µM
Method in brief: (§1)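 Viability was measured with CellTiter-Glo 2.0 luminescence after 72 hours of dosing at a final DMSO of typically 0.2%, and scaled between blank-well and DMSO-well means. Beforehand, cancer cell lines sat 24 hours at 37°C and 5% CO2 in 1536-well plates in 7.5 μl DMEM/F12 or RPMI with 10% FBS. A non-linear mixed effects model fitted two-parameter logistic curves to the dose responses. The single-agent IC50 comes from these fits.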

[2] = compound: C[C@@H]1COCCN1C2=NC(=NC(=C2)C3(CC3)[S@](=N)(=O)C)C4=C5C=CNC5=NC=C4 [AZD6738]; details: max 10 µM
Method in brief: as §1

[3] = compound: Cc1nc(-c2cn3c(n2)-c2ccc(-c4cnn(C(C)(C)C(N)=O)c4)cc2OCC3)n(C(C)C)n1 [Taselisib]; details: max 10 µM
Method in brief: as §1

[4] = compound: Nc1ccn([C@@H]2O[C@H](CO)[C@@H](O)C2(F)F)c(=O)n1 [Gemcitabine]; details: max 0.3 µM
Method in brief: as §1

[5] = compound: CC(=O)O[C@H]1C(=O)[C@@]2(C)[C@H]([C@H](OC(=O)c3ccccc3)[C@]3(O)C[C@H](OC(=O)[C@H](O)[C@@H](NC(=O)c4ccccc4)c4ccccc4)C(C)=C1C3(C)C)[C@]1(OC(C)=O)CO[C@@H]1C[C@@H]2O [Paclitaxel]; details: max 3 µM
Method in brief: as §1

[6] = compound: Cc1cc2ncnn2cc1Nc1ncc2c(n1)n(C1CCOCC1)c(=O)n2C [AZD7648]; details: max 10 µM
Method in brief: as §1

[7] = compound: CN(CC[C@H](CSC1=CC=CC=C1)NC2=C(C=C(C=C2)S(=O)(=O)NC(=O)C3=CC=C(C=C3)N4CCC(CC4)[C@H](C5=CC=CC=C5C6=CC=C(C=C6)Cl)O)S(=O)(=O)C(F)(F)F)CCO [AZD4320]; details: max 1 µM
Method in brief: as §1

[8] = compound: CC1(C)CCC(CN2CCN(c3ccc(C(=O)NS(=O)(=O)c4ccc(NCC5CCOCC5)c([N+](=O)[O-])c4)c(Oc4cnc5[nH]ccc5c4)c3)CC2)=C(c2ccc(Cl)cc2)C1 [Venetoclax]; details: max 1 µM
Method in brief: as §1

[9] = compound: C1CC(C1)(C(=O)[O-])C(=O)[O-].N.N.[Pt+2] [Carboplatin]; details: max 10 µM
Method in brief: as §1

[10] = compound: N#Cc1cnc(Nc2cc(NC[C@H]3CNCCO3)c(C(F)(F)F)cn2)cn1 [SRA737]; details: max 10 µM
Method in brief: as §1

[11] = compound: Cn1cnc2c(F)c(Nc3ccc(Br)cc3Cl)c(C(=O)NOCCO)cc21 [Selumetinib]; details: max 10 µM
Method in brief: as §1

[12] = compound: Cc1c2c(nn1C)CSCc1cc(n(C)n1)CSc1cc(c3ccccc3c1)OCCCc1c(C(=O)O)n(C)c3c-2c(Cl)ccc13 [AZD5991]; details: max 1 µM
Method in brief: as §1

[13] = compound: CN(C)CCCOc1ccc(-c2ccc3ncc4c(c3c2)n(C2CCOCC2)c(=O)n4C)cn1 [AZD0156]; details: max 3 µM
Method in brief: as §1

[14] = compound: CC(=O)c1c(C)c2cnc(Nc3ccc(N4CCNCC4)cn3)nc2n(C2CCCC2)c1=O [Palbociclib]; details: max 10 µM
Method in brief: as §1

[15] = compound: COc1cccc(OCCCN)c1-c1cc(Nc2cnc(C#N)cn2)n[nH]1 [Prexasertib]; details: max 1 µM
Method in brief: as §1

[16] = compound: COc1cc2ncnc(Nc3ccc(F)c(Cl)c3)c2cc1OCCCN1CCOCC1 [Gefitinib]; details: max 10 µM
Method in brief: as §1

[17] = compound: CC1=C(C(=CC=C1)Cl)NC(=O)C2=CN=C(S2)NC3=CC(=NC(=N3)C)N4CCN(CC4)CCO [Dasatinib]; details: max 2 µM
Method in brief: as §1

[18] = compound: COc1cccc2c1C(=O)c1c(O)c3c(c(O)c1C2=O)C[C@@](O)(C(=O)CO)C[C@@H]3O[C@H]1C[C@H](N)[C@H](O)[C@H](C)O1 [Doxorubicin]; details: max 1 µM
Method in brief: as §1

[19] = compound: NC1(c2ccc(-c3nc4ccn5c(=O)[nH]nc5c4cc3-c3ccccc3)cc2)CCC1 [MK-2206]; details: max 10 µM
Method in brief: as §1

[20] = compound: C[C@@H](Oc1cc(-c2cnn(C3CCNCC3)c2)cnc1N)c1c(Cl)ccc(F)c1Cl [Crizotinib]; details: max 10 µM
Method in brief: as §1

[21] = compound: CCc1c2c(nc3ccc(O)cc13)-c1cc3c(c(=O)n1C2)COC(=O)[C@]3(O)CC [SN-38]; details: max 0.3 µM
Method in brief: as §1

[22] = compound: C[C@@H](c1ccc2nccn2c1)n1nnc2ncc(-c3cnn(C)c3)nc21 [Savolitinib]; details: max 1 µM
Method in brief: as §1

[23] = compound: CS(=O)(=O)CCNCc1ccc(-c2ccc3ncnc(Nc4ccc(OCc5cccc(F)c5)c(Cl)c4)c3c2)o1 [Lapatinib]; details: max 10 µM
Method in brief: as §1

[24] = compound: C[C@@H](Nc1cc(F)cc(F)c1)c1cc(C(=O)N(C)C)cc2c(=O)cc(N3CCOCC3)oc12 [AZD8186]; details: max 10 µM
Method in brief: as §1

[25] = compound: CC(C)n1c(=O)n(C)c2cnc3cc(F)c(-c4ccc(OCCCN5CCCCC5)nc4)cc3c21 [AZD1390]; details: max 0.3 µM
Method in brief: as §1

[26] = compound: CCN(CCO)CCCOc1ccc2c(Nc3cc(CC(=O)Nc4cccc(F)c4)[nH]n3)ncnc2c1 [AZD2811]; details: max 1 µM
Method in brief: as §1

[27] = compound: O=C(Nc1ccc2[nH]nc(-c3ccncc3)c2c1)[C@@H]1CCN(CC(=O)N2CCN(c3ccc(-c4ncccn4)cc3)CC2)C1; details: max 5 µM
Method in brief: as §1

[28] = compound: C1CN(CCC1(C(=O)N[C@@H](CCO)C2=CC=C(C=C2)Cl)N)C3=NC=NC4=C3C=CN4 [AZD5363]; details: max 10 µM
Method in brief: as §1

[29] = compound: COc1nnc2ccc(N3CCC(c4ccc(OCCN5CCN(C)C(=O)[C@H]5C)cc4)CC3)nn12 [AZD5153]; details: max 1 µM
Method in brief: as §1

[30] = compound: O=c1[nH]cc(F)c(=O)[nH]1 [5-Fluorouracil]; details: max 20 µM
Method in brief: as §1

[31] = compound: COc1cc(Nc2ncc3c(n2)-c2ccc(Cl)cc2C(c2c(F)cccc2OC)=NC3)ccc1C(=O)O [Alisertib]; details: max 10 µM
Method in brief: as §1

[32] = compound: COc1cc([C@@H]2c3cc4c(cc3[C@@H](O[C@@H]3O[C@@H]5CO[C@@H](C)O[C@H]5[C@H](O)[C@H]3O)[C@H]3COC(=O)[C@H]23)OCO4)cc(OC)c1O [Etoposide]; details: max 10 µM
Method in brief: as §1

[33] = compound: CC1=CN2[C@@H](C1)C=NC3=CC(=C(C=C3C2=O)OC)OCCCCCOC4=C(C=C5C(=C4)N=C[C@@H]6CC(=CN6C5=O)C)OC [SG3199]; details: max 0.001 µM
Method in brief: as §1

[34] = compound: O=C(c1cc(Cc2n[nH]c(=O)c3ccccc23)ccc1F)N1CCN(C(=O)C2CC2)CC1 [Olaparib]; details: max 10 µM
Method in brief: as §1

[35] = compound: CC(=O)Nc1cccc(-n2c(=O)n(C3CC3)c(=O)c3c(Nc4ccc(I)cc4F)n(C)c(=O)c(C)c32)c1 [Trametinib]; details: max 1 µM
Method in brief: as §1

Cell Line | IC50, cell viability 72 h [1] [µM] | IC50, cell viability 72 h [2] [µM] | IC50, cell viability 72 h [3] [µM] | IC50, cell viability 72 h [4] [µM] | IC50, cell viability 72 h [5] [µM] | IC50, cell viability 72 h [6] [µM] | IC50, cell viability 72 h [7] [µM] | IC50, cell viability 72 h [8] [µM] | IC50, cell viability 72 h [9] [µM] | IC50, cell viability 72 h [10] [µM] | IC50, cell viability 72 h [11] [µM] | IC50, cell viability 72 h [12] [µM] | IC50, cell viability 72 h [13] [µM] | IC50, cell viability 72 h [14] [µM] | IC50, cell viability 72 h [15] [µM] | IC50, cell viability 72 h [16] [µM] | IC50, cell viability 72 h [17] [µM] | IC50, cell viability 72 h [18] [µM] | IC50, cell viability 72 h [19] [µM] | IC50, cell viability 72 h [20] [µM] | IC50, cell viability 72 h [21] [µM] | IC50, cell viability 72 h [22] [µM] | IC50, cell viability 72 h [23] [µM] | IC50, cell viability 72 h [24] [µM] | IC50, cell viability 72 h [25] [µM] | IC50, cell viability 72 h [26] [µM] | IC50, cell viability 72 h [27] [µM] | IC50, cell viability 72 h [28] [µM] | IC50, cell viability 72 h [29] [µM] | IC50, cell viability 72 h [30] [µM] | IC50, cell viability 72 h [31] [µM] | IC50, cell viability 72 h [32] [µM] | IC50, cell viability 72 h [33] [µM] | IC50, cell viability 72 h [34] [µM] | IC50, cell viability 72 h [35] [µM]
BICR78 (Oral Cavity Carcinoma) | > 3 | 7.52 | 5.01 | > 0.3 | 0.0493 | > 10 | > 1 | > 1 | > 10 | > 10 | > 10 | > 1 | > 3 | > 10 | 0.238 | > 10 | > 2 | > 1 | > 10 | > 10 | 0.0284 | > 1 | > 10 | > 10 | > 0.3 | > 1 | > 5 | > 10 | 0.966 | > 20 | > 10 | > 10 | > 0.001 | > 10 | > 1
CAL-39 (Other Solid Carcinomas) | 0.651 | > 10 | 0.142 | 0.0252 | 0.00679 | > 10 | > 1 | > 1 | > 10 | > 10 | 1.02 | > 1 | > 3 | > 10 | > 1 | 0.737 | 0.0739 | > 1 | > 10 | 4.69 | 0.0222 | > 1 | 0.377 | 4.77 | > 0.3 | > 1 | 0.581 | > 10 | 0.287 | > 20 | 0.42 | 9.07 | > 0.001 | > 10 | 0.059
CS1 (Chondrosarcoma) | 2.03 | > 10 | > 10 | > 0.3 | 0.114 | > 10 | > 1 | > 1 | > 10 | > 10 | > 10 | > 1 | > 3 | > 10 | 0.0772 | > 10 | > 2 | 0.641 | > 10 | 9.48 | 0.0186 | > 1 | > 10 | > 10 | > 0.3 | > 1 | > 5 | > 10 | > 1 | > 20 | 4.52 | > 10 | > 0.001 | > 10 | > 1
D-283MED (Other Solid Carcinomas) | 0.425 | 0.302 | 3.99 | 0.00345 | < 0.003 | > 10 | 0.425 | > 1 | > 10 | 0.869 | > 10 | > 1 | > 3 | > 10 | 0.011 | > 10 | > 2 | 0.2 | > 10 | 2.73 | 0.0073 | > 1 | 6.25 | 8.4 | > 0.3 | 0.45 | > 5 | 8.85 | 0.0608 | 7.43 | 0.547 | 0.583 | > 0.001 | > 10 | > 1
D-392MG (Glioblastoma) | > 3 | > 10 | > 10 | > 0.3 | 0.245 | > 10 | > 1 | > 1 | > 10 | > 10 | > 10 | > 1 | > 3 | > 10 | 0.775 | > 10 | > 2 | > 1 | > 10 | > 10 | > 0.3 | > 1 | > 10 | > 10 | > 0.3 | > 1 | > 5 | > 10 | > 1 | > 20 | > 10 | > 10 | > 0.001 | > 10 | > 1
